We go through 3 molecules from PubChem BioAssay (NCI).

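Exposure lasted 48 hours, with cells grown in 96-well plates and compounds tested at five concentrations. GI50 marks 50% less growth. At the TGI there is no net growth.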

Test systems include HCC-2998 colon; HL-60(TB) leukemia; HS 578T breast; KM12 colon; MDA-MB-435; NCI-H23 lung; OVCAR-5 ovarian; RPMI-8226 leukemia; RXF 393 renal; SK-MEL-2 melanoma.
What all share (test): NCI-60 cell line screen, 48 h

`O=C1NC(=NCCc2cccc(F)c2)S/C1=C\c1ccc2ncccc2c1`: the GI50 in the experiment with HCC-2998 colon is more than 25 µM; with HL-60(TB) leukemia it was 2.08 µM; with HS 578T breast it was 10.6 µM; in the experiment with KM12 colon, 1.07 µM; with MDA-MB-435, 0.312 µM; with NCI-H23 lung, 19.2 µM. Besides, the GI50 is more than 25 µM with OVCAR-5 ovarian, 1.73 µM with RPMI-8226 leukemia, 4.4 µM in the experiment on RXF 393 renal and 15.8 µM in the experiment on SK-MEL-2 melanoma. Moreover, the TGI was more than 25 µM with HCC-2998 colon; more than 12.9 µM in the experiment on HL-60(TB) leukemia; more than 25 µM with HS 578T breast; more than 25 µM in the experiment with KM12 colon; 1.19 µM in the experiment with MDA-MB-435; more than 25 µM in the experiment with NCI-H23 lung. For the same molecule, the TGI in the experiment with OVCAR-5 ovarian, with RPMI-8226 leukemia, in the experiment on RXF 393 renal and with SK-MEL-2 melanoma was more than 25 µM throughout.
For the molecule `Cc1ccc(Cl)c2c(N=Nc3ccccc3[N+](=O)[O-])c(O)[nH]c12`, the TGI with HCC-2998 colon was more than 100 µM; in the experiment with HL-60(TB) leukemia, more than 100 µM; in the experiment with HS 578T breast, 70.2 µM; in the experiment with KM12 colon, more than 100 µM; in the experiment with MDA-MB-435, 35.3 µM; with NCI-H23 lung, more than 100 µM. Moreover, the TGI in the experiment with OVCAR-5 ovarian, with RPMI-8226 leukemia, in the experiment with RXF 393 renal and with SK-MEL-2 melanoma was more than 100 µM each time.
For the molecule `OC1CSSC1Cn1cnc2c(Nc3ccc(OCc4cccc(F)c4)c(Cl)c3)ncnc21` (stereo not given), the GI50 in the experiment on HCC-2998 colon is 0.952 µM; in the experiment on HL-60(TB) leukemia, 3.47 µM; with HS 578T breast, 5.28 µM; with KM12 colon, 0.386 µM; with MDA-MB-435, 0.35 µM; in the experiment with NCI-H23 lung it was 0.689 µM. Besides, the GI50 in the experiment on OVCAR-5 ovarian is 3.83 µM; with RPMI-8226 leukemia it was 1.06 µM; with RXF 393 renal, 5.12 µM; in the experiment with SK-MEL-2 melanoma, 0.997 µM. Besides, the TGI worked out at 3.49 µM in the experiment on HCC-2998 colon; 20.8 µM in the experiment with HL-60(TB) leukemia; 15 µM in the experiment with HS 578T breast; 1.43 µM with KM12 colon; 0.788 µM in the experiment with MDA-MB-435; 1.73 µM in the experiment with NCI-H23 lung. The TGI in the experiment on OVCAR-5 ovarian came out at 10.2 µM; with RPMI-8226 leukemia it was 3.74 µM; with RXF 393 renal, 10.7 µM; in the experiment with SK-MEL-2 melanoma, 3.26 µM.
